Reference: US8618080B2, “Immunomodulatory compounds and treatment of diseases related to an overproduction of inflammatory cytokines” (OM Pharma, priority 2006, dated 2013)

How the values were obtained:
NOD mice = experiment: Occurrence of diabetes in Non Obese Diabetic (NOD) mice; format: in vivo; conditions: for Occurrence of diabetes versus control (Kaplan-Meier, logrank): 10 weeks
Description: Group of 10 female 6-week old NOD mice were treated during 10 weeks with either 0.01, 0.1, and 1 mg/kg of OM-197-MP-AC. A group of 6 female MOD mice receiving 200 μl PBS i.p. 3 times a week was used as control.
In this series of experiments, the treatment was continued until the mice have reached 16 weeks of age. This is the point in time when control animals start developing overt diabetes.
Results in terms of diabetes incidence were compared to those obtained in control animals. Diabetes was checked once a week by glucosuria testing, using test strips (Glukotest®, Roche, France), twice a week when diabetes appeared. Diabetes was confirmed by evaluating glycemia (>3 mg/ml) with test strips (Glucotrend®).
The occurrence of diabetes in the different experimental groups is plotted (see FIG. 15) using the Kaplan-Meier method, i.e. non parametric cumulative survival plot. The statistical comparison between the curves is performed using the logrank (Mantel-Cox) test which provided the corresponding χ2 values.
FIG. 15: Occurrence of diabetes in NOD mice. Mice were treated i.p. with either PBS (6 animals), or the 3 indicated doses of OM-197-MP-AC (3 groups of 10 animals). Diabetes was checked once a week by glucosuria testing (Glukotest), and twice a week when diabetes appeared. Diabetes was confirmed by evaluating glycemia (>3 mg/ml) with test strips (Glucotrend®). The occurrence of diabetes in the different experimental groups is plotted (see FIG. 15) using the Kaplan-Meier method, i.e. non parametric cumulative survival plot. The statistical comparison between the curves is performed using the logrank (Mantel-Cox) test which provided the corresponding χ2 values: OM-197-MP-AC 1 mg/kg p=0.321; 0.1 mg/kg=0.0543

[1] = Pyrogenicity in the rabbit; format: in vivo, New Zealand white rabbits; conditions: i.v., temperature increase
Description: 3 New Zealand white rabbits/group were injected i.v. with either OM-197-MP-AC or OM-294-DP at different doses (according to the European Pharmacopoeia 2001, Method 2.6.8).
Animals: Readout: temperature increase

human CD4+ T cells = experiment: Cytokine production and proliferation of naïve CD4+ T cells stimulated with anti-CD3 and anti-CD28; format: cell-based; conditions: 0.02-20 μg/ml
Description: A series of four compounds of the present invention (OM-197-MP-AC, OM-197-MC-HD, OM-294-BA-MP, OM-197-MP-HD) were tested directly as summarized below:
Naïve CD4^+ T cells were magnetically sorted from healthy blood donor (buffy coat). The cells were stimulated in the presence or not of graded doses of triacyl derivatives (0.02; 0.2; 2 and 20 μg/ml) using plate-bound anti-CD3 (5 μg/ml) and soluble anti-CD28 (1 μg/ml). After 6 days, cytokine levels (IFN-γ and IL-13) were tested in the culture supernatants using ELISA.
FIGS. 3A-3D: Effect of increasing doses of the four compounds tested (OM-197-MP-AC, n=5; OM-197-MC-HD, n=5; OM-294-BA-MP, n=7; OM-197-MP-HD, n=3) on IFN-γ and IL-13 production of human CD4^+ T cells following a polyclonal activation. Results are expressed as the median (±p25/p75) of n independent experiments and show the percentage (%) proliferation or cytokine production of treated cells versus untreated cells (considered as 100%, see dotted line). The statistical analysis was performed using a nonparametric unpaired Mann-Whitney t test (2-tailed).

[2] = test system: LACK-sensitized and challenged mice; experiment: LACK-induced allergic asthma model, therapeutic i.p. treatment; format: in vivo
Description: The main differences compared to the previous (part a) protocol are: • Mice were treated with OM-197-MP-AC i.p. only on days 15, 17 and 19 (i.e. at least 1 week after the second sensitization) at the dose of 1 mg/Kg (20 μg per mouse). • The lung cytokines measured by multiplex analysis using FACSArray were IL-4, IL-5, IL-13, IFN-γ, and IL-10. Results: Total Cell Number and Eosinophils in BAL:
Two days after the last aerosol, mice were sacrificed and BAL cells harvested.
In order to further characterize the immune status of mice after therapeutic treatment with OM-197-MP-AC, we analyzed LACK-specific IgE in sera of treated mice and in those of untreated mice by ELISA. Whereas LACK-specific IgE levels increased 7-fold upon exposition to LACK aerosols, sera of OM-197-MP-AC-treated mice contained 2-fold less (p<0.05) LACK-specific IgE compared to untreated LACK challenged mice.
FIG. 8: Mice were therapeutically treated three times as described in the method section, lavages were performed in individual mice bled with a canula inserted into their trachea. Lungs were washed 3 times with 1 ml of warmed PBS. Cells were washed with PBS, resuspended in 300 μl, and counted using a Burker-Türk chamber. For differential BAL cell counts, cytospin preparations were made and stained with Wright/Giemsa coloration. The groups tested were: LACK-sensitized and PBS-challenged wt mice (Control), LACK-sensitized and challenged wt mice (Asthma), and OM-197-MP-AC-treated wt mice (OM-197). The total cell number in BAL was determined by microscopic examination of cytospin preparations stained with Wright/Giemsa coloration. The dotted line indicates throughout the graph the value obtained in untreated asthmatic animals.
FIG. 9: Percentage of eosinophils in BAL analyzed by microscopic examination of cytospin preparations stained with Wright/Giemsa coloration. Mice were therapeutically treated three times as described in the method section, cells from BAL were harvested as explained in FIG. 8. The (therapeutic) groups studied are the same as those used in FIG. 8. The dotted line indicates throughout the graph the value obtained in untreated asthmatic animals.
FIG. 10: To analyze lung cytokine contents, lungs were harvested and left lungs were used to prepare protein extracts. 400 μl were recovered for each left lung. Cytokines were measured by multiplex analysis using FACSArray, and results are given in pg/ml. The (therapeutic) groups studied are the same as those used in FIGS. 8 and 9. The dotted lines indicate throughout the graphs the values obtained in untreated asthmatic animals.

[3] = 1 mg/Kg i.p. therapeutic, versus untreated mice

For `CCCCCCCCCCCC(=O)O[C@H](CCCCCCCCCCC)CC(=O)N[C@@H](CCOP(=O)(O)O)C(=O)NCCC[C@H](COC(=O)CCCCCN)NC(=O)C[C@H](O)CCCCCCCCCCC` [OM-197-MP-AC, (3S, 9R)-3-[(R)-3-dodecanoyloxytetradecanoylamino]-4-oxo-5-aza-9-[(R)-3-hydroxytetradecanoylamino]-decan-1, 10-diol 1-dihydrogenophosphate 10-(6-aminohexanoate)], the “Occurrence of diabetes versus control (Kaplan-Meier, logrank)” value (NOD mice; 0.1 mg/kg i.p.) was “positive trend”, the Animals exhibiting diabetes (NOD mice; 0.3 mg/kg, week 27, another experiment) was 27% and the “Occurrence of diabetes versus control (Kaplan-Meier, logrank)” value (NOD mice; 1 mg/kg i.p.) was “significantly active”. For the same compound, the Pyrogenic threshold [1] was over 0.9 mg/kg, the T cell proliferation (human CD4+ T cells) was “unaffected” and the “IFN-γ production by CD4+ T cells” value (human CD4+ T cells; 6 days, ELISA) was “unaffected”. The “IL-13 production by CD4+ T cells” value (human CD4+ T cells; 6 days, ELISA) was “reduced”, the “Eosinophils in BAL, less than untreated mice” value ([2]; 1 mg/Kg i.p. on days 15, 17, 19 (therapeutic)) was 40-45 fold less and the “BAL cell recruitment impaired” value ([2]; 1 mg/Kg i.p. on days 15, 17, 19 (therapeutic), versus untreated mice) was 90%. For the same compound, the “Lung IFN-γ levels, treated versus untreated mice” value ([2]; 1 mg/Kg i.p. therapeutic) was “reduced”, the “Lung IL-10 amounts upon treatment” value ([2]; 1 mg/Kg i.p. therapeutic) was “not significantly increased” and the “LACK-specific IgE in sera, less than untreated LACK challenged mice” value ([2]; 1 mg/Kg i.p. therapeutic, ELISA) was 2 fold less. For the same compound, the “Lung IL-4 levels reduced” value [2, 3] was 90%, the “Lung IL-5 amounts reduced” value [2, 3] was 70% and the “Lung IL-13 amounts reduced” value [2, 3] was 85%.
